Earlier results in PubChem BioAssay AID1259409 (Chemical Carcinogenesis Research Information System (CCRIS), 2018).
Where a SMILES comes first, the peptide text is derived from it. The star is where a group is joined. Leuψ(CH2N)ThzNH2 = CC(C)C[C@@H](CN1CSC[C@H]1C(N)=O)N*; Hydrocinnamoyl = O=C(CCc1ccccc1)*

Test system: rodent chemically induced tumor inhibition, incidence and multiplicity
Assay: CCRIS tumor inhibitor studies

For `C=CC/C(=N/OS(=O)(=O)O)S[C@@H]1O[C@H](CO)[C@@H](O)[C@H](O)[C@H]1O`, the “tumour outcome (control, treated, inhibition, significance)” value (Carcinogen: 4-NITROQUINOLINE-1-OXIDE, 56-57-5, Dose [Inhibitor]: 0, 1200 PPM IN DIET BEGINNING 1 WK POST CARCINOGEN TREATMENT AND CONTINUING FOR 23 WK (STUDY DURATION: 37 WK), Route [Inhibitor]: ORAL, Species: RAT, Strain/Sex: ACI/N/MALE, Target Tissue: Type of Lesion: TONGUE: CARCINOMA, Dose [Carcinogen]: 10 PPM IN DRINKING WATER FOR 12 WK, Promoter: NONE USED) is listed as 12/17 (71%), 0/15 (0%), 100%, p 0.0003, the “tumour outcome (control, treated, inhibition, significance)” value (Carcinogen: 4-NITROQUINOLINE-1-OXIDE, 56-57-5, Dose [Inhibitor]: 0, 1200 PPM IN DIET BEGINNING 1 WK POST CARCINOGEN TREATMENT AND CONTINUING FOR 23 WK (STUDY DURATION: 37 WK), Route [Inhibitor]: ORAL, Species: RAT, Strain/Sex: ACI/N/MALE, Target Tissue: Type of Lesion: TONGUE: PAPILLOMA, Dose [Carcinogen]: 10 PPM IN DRINKING WATER FOR 12 WK, Promoter: NONE USED) is listed as 5/17 (29%), 2/15 (13%), 55%, not calculated and the “tumour outcome (control, treated, inhibition, significance)” value (Carcinogen: 4-NITROQUINOLINE-1-OXIDE, 56-57-5, Dose [Inhibitor]: 0, 1200 PPM IN DIET BEGINNING 1 WK PRIOR TO CARCINOGEN TREATMENT AND CONTINUING FOR 1 WK POST CARCINOGEN TREATMENT (STUD, Route [Inhibitor]: ORAL, Species: RAT, Strain/Sex: ACI/N/MALE, Target Tissue: Type of Lesion: TONGUE: CARCINOMA, Dose [Carcinogen]: 10 PPM IN DRINKING WATER FOR 12 WK, Promoter: NONE USED) is listed as 12/17 (71%), 0/15 (0%), 100%, p 0.00003. The “tumour outcome (control, treated, inhibition, significance)” value (Carcinogen: 4-NITROQUINOLINE-1-OXIDE, 56-57-5, Dose [Inhibitor]: 0, 1200 PPM IN DIET BEGINNING 1 WK PRIOR TO CARCINOGEN TREATMENT AND CONTINUING FOR 1 WK POST CARCINOGEN TREATMENT (STUD, Route [Inhibitor]: ORAL, Species: RAT, Strain/Sex: ACI/N/MALE, Target Tissue: Type of Lesion: TONGUE: PAPILLOMA, Dose [Carcinogen]: 10 PPM IN DRINKING WATER FOR 12 WK, Promoter: NONE USED) was 5/17 (29%), 1/15 (7%), 76%, not calculated, the “tumour outcome (control, treated, inhibition, significance)” value (Carcinogen: DIETHYLNITROSAMINE, 55-18-5, Dose [Inhibitor]: 0, 1200 PPM IN DIET BEGINNING 1 WK PRIOR TO FIRST CARCINOGEN DOSE AND CONTINUING TO 1 WK POST LAST CARCINOGEN DOSE (STUD, Route [Inhibitor]: ORAL, Species: RAT, Strain/Sex: ACI/N/MALE, Target Tissue: Type of Lesion: LIVER: ADENOMA, Dose [Carcinogen]: 40 PPM IN DRINKING WATER FOR 5 WK, Promoter: NONE USED) was 10/10 (100%), 2/12 (17%), 83%, p<0.0002 and the “tumour outcome (control, treated, inhibition, significance)” value (Carcinogen: DIETHYLNITROSAMINE, 55-18-5, Dose [Inhibitor]: 0, 1200 PPM IN DIET BEGINNING 1 WK PRIOR TO FIRST CARCINOGEN DOSE AND CONTINUING TO 1 WK POST LAST CARCINOGEN DOSE (STUD, Route [Inhibitor]: ORAL, Species: RAT, Strain/Sex: ACI/N/MALE, Target Tissue: Type of Lesion: LIVER: CARCINOMA, Dose [Carcinogen]: 40 PPM IN DRINKING WATER FOR 5 WK, Promoter: NONE USED) was 10/10 (100%), 4/12 (33%), 67%, p<0.002.

In the case of `CC(C)C[C@@H](CN1CSC[C@H]1C(N)=O)NC(=O)[C@H](Cc1cnc[nH]1)NC(=O)CNC(=O)[C@@H](NC(=O)[C@H](C)NC(=O)[C@H](Cc1c[nH]c2ccccc12)NC(=O)[C@H](CCC(N)=O)NC(=O)CCc1ccccc1)C(C)C` (Hydrocinnamoyl-QWAVGH-{Leuψ(CH2N)ThzNH2}), the “tumour outcome (control, treated, inhibition, significance)” value (Carcinogen: N-NITROSOBIS(2-OXOPROPYL)AMINE, 60599-38-4, Dose [Inhibitor]: 0, 20 UG/D FROM OSMOTIC PUMP FOR 2 MO, Route [Inhibitor]: SUBCUTANEOUS IMPLANT, Species: HAMSTER, Strain/Sex: SYRIAN/FEMALE, Target Tissue: Type of Lesion: PANCREAS: ADENOCARCINOMA, Promoter: NONE USED) is listed as 10/11 (91%), 7/11 (64%), 30%, not calculated and the “tumour outcome (control, treated, inhibition, significance)” value (Carcinogen: N-NITROSOBIS(2-OXOPROPYL)AMINE, 60599-38-4, Dose [Inhibitor]: 0, 30 UG/D FOR 2 MO, Route [Inhibitor]: SUBCUTANEOUS, Species: HAMSTER, Strain/Sex: SYRIAN/FEMALE, Target Tissue: Type of Lesion: PANCREAS: ADENOCARCINOMA, Promoter: NONE USED) is listed as 11/13 (85%), 12/13 (92%), -8%, not calculated.

In the case of `CC(=O)Nc1nnc(S(N)(=O)=O)s1`, the “tumour outcome (control, treated, inhibition, significance)” value (Carcinogen: N-BUTYL-N-(4-HYDROXYBUTYL)NITROSAMINE, 3817-11-6, Dose [Inhibitor]: 0.35% DIET DAILY FOR 34 WK STARTING AFTER CARCINOGEN TREATMENT (STUDY DURATION: 38 WK), Route [Inhibitor]: ORAL, Species: RAT, Strain/Sex: F344/MALE, Target Tissue: Type of Lesion: URINARY BLADDER: PAPILLOMA, Dose [Carcinogen]: 0.01% IN DRINKING WATER FOR 4 WK, Promoter: NONE USED) is listed as 33%, 15%, 55%, not significant.

In the case of `C[C@@H](O)[C@@H]1NC(=O)[C@H](CCCCN)NC(=O)[C@@H](Cc2c[nH]c3ccccc23)NC(=O)[C@H](Cc2ccccc2)NC(=O)[C@@H](NC(=O)[C@H](N)Cc2ccccc2)CSSC[C@@H](C(=O)N[C@H](CO)[C@@H](C)O)NC1=O`, the “tumour outcome (control, treated, inhibition, significance)” value (Carcinogen: N-NITROSOBIS(2-OXOPROPYL)AMINE [60599-38-4], Dose [Inhibitor]: 0, 3 UG/KG/D FOR 4 WK BEGINNING 1 WK PRIOR TO FIRST CARCINOGEN (STUDY DURATION: 40 WK), Route [Inhibitor]: SUBCUTANEOUSLY IMPLANTED OSMOTIC PUMP, Species: HAMSTER, Strain/Sex: SYRIAN/FEMALE, Target Tissue: Type of Lesion: PANCREAS: ADENOCARCINOMA, Dose [Carcinogen]: 10 MG/KG BW ONCE/WK FOR 3 WK (STUDY DURATION: 40 WK), Promoter: NONE) is listed as 8/18 (44%), 11/20 (55%), -25%, not significant and the “tumour outcome (control, treated, inhibition, significance)” value (Carcinogen: N-NITROSOBIS(2-OXOPROPYL)AMINE [60599-38-4], Dose [Inhibitor]: 0, 6 UG/KG/D FOR 4 WK BEGINNING 1 WK PRIOR TO FIRST CARCINOGEN (STUDY DURATION: 40 WK), Route [Inhibitor]: SUBCUTANEOUSLY IMPLANTED OSMOTIC PUMP, Species: HAMSTER, Strain/Sex: SYRIAN/FEMALE, Target Tissue: Type of Lesion: PANCREAS: ADENOCARCINOMA, Dose [Carcinogen]: 10 MG/KG BW ONCE/WK FOR 3 WK (STUDY DURATION: 40 WK), Promoter: NONE) is listed as 8/18 (44%), 9/20 (45%), -2%, not significant.

In the case of `O=c1oc2ccccc2c(O)c1Cc1c(O)c2ccccc2oc1=O`, the “tumour outcome (control, treated, inhibition, significance)” value (Carcinogen: 17BETA-ESTRADIOL, 50-28-2, Dose [Inhibitor]: 0, 0.09% IN DIET BEGINNING 5 D POST CARCINOGEN DOSE (STUDY DURATION: 7.5 MO), Route [Inhibitor]: ORAL, Species: HAMSTER, Strain/Sex: SYRIAN/MALE, Target Tissue: Type of Lesion: KIDNEY: TUMOR, Dose [Carcinogen]: 25 MG PELLET REPLACED WITH A SECOND PELLET AFTER 4 MO, Promoter: NONE USED) is given as 13/13 (100%), 7/12 (58%), 42%, p<0.05.

In the case of `N[C@@H](Cc1cc(I)c(Oc2cc(I)c(O)c(I)c2)c(I)c1)C(=O)O`, the outcome (Carcinogen: N-METHYL-N-NITROSOUREA [684-93-5], Dose [Inhibitor]: 3 UG/ML IN DRINKING WATER, 2 WKS BEFORE CARCINOGEN AND FOR 26 WKS AFTER, Route [Inhibitor]: DRINKING WATER, Species: RAT, Strain/Sex: SPRAGUE-DAWLEY/FEMALE, Target Tissue: Type of Lesion: MAMMARY GLAND: CARCINOMA, Dose [Carcinogen]: 50 MG/KG BW ONCE AT 7 WKS OF AGE (IN SALINE SOLUTION)) is given as 8/11 (73%) vs 9/11 (82%) at 16 wks.

In the case of `CC(C)=CCC/C(C)=C/CC/C(C)=C/CC/C=C(\C)CC/C=C(\C)CCC=C(C)C`, the “tumour outcome (control, treated, inhibition, significance)” value (Carcinogen: BENZO[A]PYRENE, 50-32-8, Dose [Inhibitor]: 25 MG IN 0.1 ML ACETONE 3/WK ADMINISTERED SIMULTANEOUSLY WITH CARCINOGEN FOR DURATION OF STUDY (STUDY DURATION: 440 D), Route [Inhibitor]: DERMAL, Species: MOUSE, Strain/Sex: ICR/FEMALE, Target Tissue: Type of Lesion: SKIN: PAPILLOMA, Dose [Carcinogen]: 5 UG IN 0.1 ML ACETONE 3/WK FOR DURATION OF STUDY, Promoter: NONE USED) is given as 16/50 (32%), 1/50 (2%), 94%, not calculated and the “tumour outcome (control, treated, inhibition, significance)” value (Carcinogen: BENZO[A]PYRENE, 50-32-8, Dose [Inhibitor]: 25 MG IN 0.1 ML ACETONE 3/WK ADMINISTERED SIMULTANEOUSLY WITH CARCINOGEN FOR DURATION OF STUDY (STUDY DURATION: 440 D), Route [Inhibitor]: DERMAL, Species: MOUSE, Strain/Sex: ICR/FEMALE, Target Tissue: Type of Lesion: SKIN: SQUAMOUS CARCINOMA, Dose [Carcinogen]: 5 UG IN 0.1 ML ACETONE 3/WK FOR DURATION OF STUDY, Promoter: NONE USED) is given as 12/50 (24%), 0/50 (0%), 100%, not calculated.
